Tests used:
[1] = molecular target: Casein kinase I isoform delta (Homo sapiens) (UniProt P48730); experiment: Inhibition of CK1-delta (unknown origin) at 0.078 uM relative to control
[2] = molecular target: T1, Serine/threonine-protein kinase Chk1 (Homo sapiens) (UniProt O14757); experiment: Inhibition of CHK1 (unknown origin) at 0.078 uM relative to control
T1 sequence (whole entry): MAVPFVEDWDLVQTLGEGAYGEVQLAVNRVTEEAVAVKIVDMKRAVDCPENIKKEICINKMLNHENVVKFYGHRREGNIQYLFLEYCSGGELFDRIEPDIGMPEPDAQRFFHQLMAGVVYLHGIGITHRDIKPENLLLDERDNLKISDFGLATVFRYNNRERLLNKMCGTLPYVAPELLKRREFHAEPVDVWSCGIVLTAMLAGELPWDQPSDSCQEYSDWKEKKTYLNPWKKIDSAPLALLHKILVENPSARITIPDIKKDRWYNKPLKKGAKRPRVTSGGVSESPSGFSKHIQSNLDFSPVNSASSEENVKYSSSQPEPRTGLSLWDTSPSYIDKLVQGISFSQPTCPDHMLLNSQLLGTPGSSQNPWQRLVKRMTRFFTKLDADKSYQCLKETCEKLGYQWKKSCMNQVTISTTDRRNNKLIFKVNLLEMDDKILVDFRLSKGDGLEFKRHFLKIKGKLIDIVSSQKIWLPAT

[3] = molecular target: Serine/threonine-protein kinase Chk2 (Homo sapiens) (UniProt O96017); experiment: Inhibition of CHK2 (unknown origin) at 0.078 uM relative to control
[4] = test system: Platelet-derived growth factor receptor alpha (Homo sapiens), P16234 [V561D]; experiment: Inhibition of PDGFRA V561D mutant (unknown origin) at 0.49 uM relative to control
[5] = molecular target: Serine/threonine-protein kinase pim-1 (Homo sapiens) (UniProt P11309); experiment: Inhibition of PIM1 (unknown origin) at 0.49 uM relative to control
Serine/threonine-protein kinase pim-1 (Homo sapiens), sequence (P11309 whole entry, looked up): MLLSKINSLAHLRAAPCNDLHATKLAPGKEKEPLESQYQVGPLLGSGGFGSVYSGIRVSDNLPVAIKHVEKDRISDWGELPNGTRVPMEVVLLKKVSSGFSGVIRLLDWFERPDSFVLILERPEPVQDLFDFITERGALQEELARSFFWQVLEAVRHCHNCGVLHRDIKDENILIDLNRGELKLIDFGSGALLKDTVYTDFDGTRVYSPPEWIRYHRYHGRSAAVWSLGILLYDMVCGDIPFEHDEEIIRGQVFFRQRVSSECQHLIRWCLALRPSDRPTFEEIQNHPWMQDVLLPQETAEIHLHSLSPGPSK

[6] = molecular target: Death-associated protein kinase 3 (Homo sapiens) (UniProt O43293); experiment: Inhibition of ZIPK (unknown origin) at 0.49 uM relative to control
Death-associated protein kinase 3 (Homo sapiens), sequence (O43293 whole entry, looked up): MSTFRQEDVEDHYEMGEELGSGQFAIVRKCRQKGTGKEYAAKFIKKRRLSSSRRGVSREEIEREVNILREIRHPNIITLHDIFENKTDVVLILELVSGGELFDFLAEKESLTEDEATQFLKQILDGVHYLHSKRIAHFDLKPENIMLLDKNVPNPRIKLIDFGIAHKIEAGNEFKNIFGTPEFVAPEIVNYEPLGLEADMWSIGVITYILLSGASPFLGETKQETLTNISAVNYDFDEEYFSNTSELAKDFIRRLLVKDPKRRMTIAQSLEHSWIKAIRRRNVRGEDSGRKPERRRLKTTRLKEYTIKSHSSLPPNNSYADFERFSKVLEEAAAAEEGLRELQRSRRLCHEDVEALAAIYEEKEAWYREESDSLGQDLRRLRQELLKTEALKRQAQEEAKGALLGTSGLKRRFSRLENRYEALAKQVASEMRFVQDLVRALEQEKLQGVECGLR

[7] = molecular target: T2, cGMP-dependent protein kinase 1 (Homo sapiens) (UniProt Q13976); experiment: Inhibition of PKG1-beta (unknown origin) at 0.49 uM relative to control
T2 sequence (whole entry): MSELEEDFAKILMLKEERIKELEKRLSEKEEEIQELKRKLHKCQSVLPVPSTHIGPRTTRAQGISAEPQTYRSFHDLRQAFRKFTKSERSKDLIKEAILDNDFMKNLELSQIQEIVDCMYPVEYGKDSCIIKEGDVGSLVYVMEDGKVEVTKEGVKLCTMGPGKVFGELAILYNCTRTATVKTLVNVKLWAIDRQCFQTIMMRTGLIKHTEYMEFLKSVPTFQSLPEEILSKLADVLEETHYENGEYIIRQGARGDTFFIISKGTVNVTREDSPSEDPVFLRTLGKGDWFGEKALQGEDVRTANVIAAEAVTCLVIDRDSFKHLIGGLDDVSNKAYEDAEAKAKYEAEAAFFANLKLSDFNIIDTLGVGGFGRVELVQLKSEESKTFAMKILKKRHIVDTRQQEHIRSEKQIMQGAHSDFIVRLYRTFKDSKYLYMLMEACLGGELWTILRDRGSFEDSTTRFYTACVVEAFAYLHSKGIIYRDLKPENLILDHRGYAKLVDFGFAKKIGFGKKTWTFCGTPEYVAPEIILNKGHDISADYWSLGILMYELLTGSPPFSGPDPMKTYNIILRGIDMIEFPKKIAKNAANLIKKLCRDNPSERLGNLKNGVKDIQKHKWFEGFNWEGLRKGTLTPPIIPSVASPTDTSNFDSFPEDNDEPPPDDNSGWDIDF

[8] = molecular target: Tyrosine-protein kinase Fer (Homo sapiens) (UniProt P16591); experiment: Inhibition of Fer (unknown origin) at 0.49 uM relative to control
[9] = molecular target: MAP kinase-activated protein kinase 3 (Homo sapiens) (UniProt Q16644); experiment: Inhibition of MAPKAPK3 (unknown origin) at 0.49 uM relative to control
MAP kinase-activated protein kinase 3 (Homo sapiens), sequence (Q16644 whole entry, looked up): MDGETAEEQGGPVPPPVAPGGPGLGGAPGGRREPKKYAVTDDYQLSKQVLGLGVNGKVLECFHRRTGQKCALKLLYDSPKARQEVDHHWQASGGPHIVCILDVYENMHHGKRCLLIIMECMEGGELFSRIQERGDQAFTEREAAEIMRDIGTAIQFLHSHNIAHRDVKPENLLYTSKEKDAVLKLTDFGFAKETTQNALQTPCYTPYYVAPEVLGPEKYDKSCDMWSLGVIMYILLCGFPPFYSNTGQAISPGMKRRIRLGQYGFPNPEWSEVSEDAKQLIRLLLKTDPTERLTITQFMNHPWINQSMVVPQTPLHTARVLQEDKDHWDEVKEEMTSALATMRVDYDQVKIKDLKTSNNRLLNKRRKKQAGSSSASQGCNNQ

[10] = molecular target: Protein kinase C delta type (Homo sapiens) (UniProt Q05655); experiment: Inhibition of PKC-delta (unknown origin) at 0.49 uM relative to control
[11] = molecular target: Serine/threonine-protein kinase Nek6 (Homo sapiens) (UniProt Q9HC98); experiment: Inhibition of NEK6 (unknown origin) at 0.45 uM relative to control
Serine/threonine-protein kinase Nek6 (Homo sapiens), sequence (Q9HC98 whole entry): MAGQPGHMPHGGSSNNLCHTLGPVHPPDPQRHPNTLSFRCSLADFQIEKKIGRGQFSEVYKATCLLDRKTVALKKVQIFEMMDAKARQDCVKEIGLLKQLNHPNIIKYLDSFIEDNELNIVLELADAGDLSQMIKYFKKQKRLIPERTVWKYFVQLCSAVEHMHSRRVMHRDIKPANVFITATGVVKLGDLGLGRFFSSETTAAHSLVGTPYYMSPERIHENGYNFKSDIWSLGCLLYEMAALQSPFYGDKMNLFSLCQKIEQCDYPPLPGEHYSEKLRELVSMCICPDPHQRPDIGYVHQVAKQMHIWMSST

[12] = molecular target: High affinity nerve growth factor receptor (Homo sapiens) (UniProt P04629); experiment: Inhibition of TRKA (unknown origin) at 0.45 uM relative to control
High affinity nerve growth factor receptor (Homo sapiens), sequence (P04629 33-796 limits assumed): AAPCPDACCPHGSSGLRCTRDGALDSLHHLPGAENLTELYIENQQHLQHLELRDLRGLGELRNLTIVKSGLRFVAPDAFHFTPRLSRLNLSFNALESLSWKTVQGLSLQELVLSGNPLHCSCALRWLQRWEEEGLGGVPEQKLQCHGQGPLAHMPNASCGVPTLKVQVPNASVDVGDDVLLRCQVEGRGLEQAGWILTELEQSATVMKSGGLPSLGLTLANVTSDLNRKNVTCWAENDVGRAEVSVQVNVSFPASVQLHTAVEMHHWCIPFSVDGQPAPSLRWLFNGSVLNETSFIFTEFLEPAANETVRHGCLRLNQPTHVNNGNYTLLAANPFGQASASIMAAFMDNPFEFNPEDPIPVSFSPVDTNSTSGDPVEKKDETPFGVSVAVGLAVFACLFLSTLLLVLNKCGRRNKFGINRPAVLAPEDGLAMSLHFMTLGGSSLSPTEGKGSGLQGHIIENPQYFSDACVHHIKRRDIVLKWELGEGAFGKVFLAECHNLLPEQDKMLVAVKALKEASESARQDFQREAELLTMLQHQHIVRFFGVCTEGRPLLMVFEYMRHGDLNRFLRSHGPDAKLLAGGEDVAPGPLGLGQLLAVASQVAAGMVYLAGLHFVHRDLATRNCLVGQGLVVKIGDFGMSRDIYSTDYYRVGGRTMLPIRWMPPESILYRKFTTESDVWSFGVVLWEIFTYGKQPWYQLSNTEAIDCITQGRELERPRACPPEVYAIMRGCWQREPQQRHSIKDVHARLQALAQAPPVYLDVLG

[13] = molecular target: Epidermal growth factor receptor (Homo sapiens) (UniProt P00533); experiment: Inhibition of EGFR (unknown origin) at 0.45 uM relative to control
Epidermal growth factor receptor (Homo sapiens), sequence (P00533 whole entry): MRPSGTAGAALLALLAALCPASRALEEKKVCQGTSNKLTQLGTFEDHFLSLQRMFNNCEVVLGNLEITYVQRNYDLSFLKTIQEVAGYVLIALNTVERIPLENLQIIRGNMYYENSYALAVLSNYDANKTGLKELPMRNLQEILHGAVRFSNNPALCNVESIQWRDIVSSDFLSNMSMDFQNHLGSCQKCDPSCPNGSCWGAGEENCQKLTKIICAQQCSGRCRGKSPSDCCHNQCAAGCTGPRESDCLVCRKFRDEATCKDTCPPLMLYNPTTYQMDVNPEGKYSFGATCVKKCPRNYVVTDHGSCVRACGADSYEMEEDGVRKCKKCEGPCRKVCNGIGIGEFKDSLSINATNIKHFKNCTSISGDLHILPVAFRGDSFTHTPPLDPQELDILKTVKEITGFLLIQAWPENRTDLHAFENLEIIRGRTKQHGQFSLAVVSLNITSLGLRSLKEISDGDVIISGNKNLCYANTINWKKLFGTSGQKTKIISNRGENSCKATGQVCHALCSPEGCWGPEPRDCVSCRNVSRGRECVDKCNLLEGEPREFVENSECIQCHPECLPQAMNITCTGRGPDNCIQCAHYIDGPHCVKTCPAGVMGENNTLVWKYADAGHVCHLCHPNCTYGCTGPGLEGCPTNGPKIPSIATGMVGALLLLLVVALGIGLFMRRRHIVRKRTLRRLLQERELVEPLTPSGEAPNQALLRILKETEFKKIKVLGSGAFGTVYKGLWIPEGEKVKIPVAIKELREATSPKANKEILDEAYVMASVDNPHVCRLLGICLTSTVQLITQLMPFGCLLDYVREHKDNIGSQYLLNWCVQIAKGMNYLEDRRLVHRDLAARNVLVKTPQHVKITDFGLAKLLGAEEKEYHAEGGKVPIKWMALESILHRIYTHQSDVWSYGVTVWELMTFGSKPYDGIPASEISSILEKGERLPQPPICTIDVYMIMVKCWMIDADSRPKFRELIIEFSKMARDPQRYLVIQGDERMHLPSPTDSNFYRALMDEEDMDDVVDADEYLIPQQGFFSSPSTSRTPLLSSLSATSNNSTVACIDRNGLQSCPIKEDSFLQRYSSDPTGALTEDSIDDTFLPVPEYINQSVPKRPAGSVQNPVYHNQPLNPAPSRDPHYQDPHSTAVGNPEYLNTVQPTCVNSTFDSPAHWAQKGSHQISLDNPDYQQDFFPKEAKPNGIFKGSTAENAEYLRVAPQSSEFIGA

[14] = molecular target: Mitogen-activated protein kinase 3 (Homo sapiens) (UniProt P27361); experiment: Inhibition of Erk1 (unknown origin) at 0.45 uM relative to control
Mitogen-activated protein kinase 3 (Homo sapiens), sequence (P27361 whole entry): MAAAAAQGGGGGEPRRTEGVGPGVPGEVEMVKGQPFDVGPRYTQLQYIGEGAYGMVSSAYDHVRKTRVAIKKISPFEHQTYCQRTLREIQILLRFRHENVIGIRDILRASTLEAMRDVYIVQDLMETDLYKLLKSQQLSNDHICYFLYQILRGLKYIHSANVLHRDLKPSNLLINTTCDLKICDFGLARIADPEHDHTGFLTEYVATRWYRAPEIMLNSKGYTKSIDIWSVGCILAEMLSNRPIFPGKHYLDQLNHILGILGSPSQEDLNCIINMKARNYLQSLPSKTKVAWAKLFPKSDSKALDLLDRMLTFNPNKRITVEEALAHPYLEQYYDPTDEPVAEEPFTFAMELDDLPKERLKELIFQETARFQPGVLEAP

[15] = molecular target: cAMP-dependent protein kinase catalytic subunit PRKX (Homo sapiens) (UniProt P51817); experiment: Inhibition of PRKX (unknown origin) at 0.45 uM relative to control
cAMP-dependent protein kinase catalytic subunit PRKX (Homo sapiens), sequence (P51817 whole entry): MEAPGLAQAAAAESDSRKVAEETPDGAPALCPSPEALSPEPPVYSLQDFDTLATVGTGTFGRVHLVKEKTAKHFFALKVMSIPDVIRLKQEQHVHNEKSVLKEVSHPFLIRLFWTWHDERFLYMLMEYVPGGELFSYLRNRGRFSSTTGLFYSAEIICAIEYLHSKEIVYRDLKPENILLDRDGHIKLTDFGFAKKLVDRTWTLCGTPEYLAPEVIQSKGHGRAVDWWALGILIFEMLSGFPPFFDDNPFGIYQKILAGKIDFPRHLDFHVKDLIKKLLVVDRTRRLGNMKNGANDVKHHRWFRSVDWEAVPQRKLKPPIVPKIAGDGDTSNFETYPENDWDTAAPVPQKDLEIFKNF

[16] = molecular target: Ribosomal protein S6 kinase alpha-6 (Homo sapiens) (UniProt Q9UK32); experiment: Inhibition of RSK4 (unknown origin) at 0.45 uM relative to control
Ribosomal protein S6 kinase alpha-6 (Homo sapiens), sequence (Q9UK32 whole entry): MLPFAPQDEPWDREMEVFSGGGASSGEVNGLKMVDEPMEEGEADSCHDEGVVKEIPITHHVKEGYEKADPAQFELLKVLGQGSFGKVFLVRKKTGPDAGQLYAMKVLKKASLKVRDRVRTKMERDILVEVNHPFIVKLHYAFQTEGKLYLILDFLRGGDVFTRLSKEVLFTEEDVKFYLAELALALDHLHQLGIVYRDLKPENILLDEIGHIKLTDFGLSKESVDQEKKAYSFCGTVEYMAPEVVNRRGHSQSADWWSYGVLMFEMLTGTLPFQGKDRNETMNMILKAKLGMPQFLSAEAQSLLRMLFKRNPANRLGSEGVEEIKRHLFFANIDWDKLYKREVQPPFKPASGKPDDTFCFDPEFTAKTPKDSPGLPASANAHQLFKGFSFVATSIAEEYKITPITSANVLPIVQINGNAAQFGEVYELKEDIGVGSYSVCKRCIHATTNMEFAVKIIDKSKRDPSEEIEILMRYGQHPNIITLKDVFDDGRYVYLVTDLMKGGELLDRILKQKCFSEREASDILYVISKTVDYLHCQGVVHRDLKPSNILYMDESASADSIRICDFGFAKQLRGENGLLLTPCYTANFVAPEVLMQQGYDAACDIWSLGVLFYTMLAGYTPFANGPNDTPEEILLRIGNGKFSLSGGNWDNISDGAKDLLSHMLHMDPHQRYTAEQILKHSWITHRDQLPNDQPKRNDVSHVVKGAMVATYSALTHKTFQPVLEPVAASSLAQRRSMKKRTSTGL

[17] = molecular target: T3, Serine/threonine-protein kinase 3 (Homo sapiens) (UniProt Q13188); experiment: Inhibition of MST2 (unknown origin) at 0.45 uM relative to control
T3 sequence (whole entry): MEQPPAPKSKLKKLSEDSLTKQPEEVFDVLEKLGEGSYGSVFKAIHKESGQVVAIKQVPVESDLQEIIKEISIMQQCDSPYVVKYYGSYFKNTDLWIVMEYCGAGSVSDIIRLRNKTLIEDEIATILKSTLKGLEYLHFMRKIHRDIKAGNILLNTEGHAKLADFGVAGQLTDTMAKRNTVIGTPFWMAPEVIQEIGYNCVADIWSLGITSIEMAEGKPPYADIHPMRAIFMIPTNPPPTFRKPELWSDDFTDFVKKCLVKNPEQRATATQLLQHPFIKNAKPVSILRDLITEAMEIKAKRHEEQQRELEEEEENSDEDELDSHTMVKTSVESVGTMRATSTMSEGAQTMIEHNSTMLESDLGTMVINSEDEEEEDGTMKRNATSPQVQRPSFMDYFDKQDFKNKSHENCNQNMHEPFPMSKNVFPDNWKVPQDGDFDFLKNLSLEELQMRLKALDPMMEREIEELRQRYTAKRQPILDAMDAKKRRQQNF

[18] = molecular target: Death-associated protein kinase 3 (Homo sapiens) (UniProt O43293); experiment: Inhibition of ZIPK (unknown origin) at 0.45 uM relative to control
[19] = molecular target: Tyrosine-protein kinase HCK (Homo sapiens) (UniProt P08631); experiment: Inhibition of Hck (unknown origin) at 0.45 uM relative to control
[20] = test system: Epidermal growth factor receptor (Homo sapiens), P00533 [T790M]; experiment: Inhibition of EGFR T790M mutant (unknown origin) at 0.45 uM relative to control

Compound: COC(=O)Nc1noc2cc(-c3c(-c4ccccn4)n[nH]c3C)ccc12
- inhibition [1]: 10.7%
- inhibition [2]: 1.3%
- inhibition [3]: 0.7%

Compound: Cc1[nH]nc(C2CC2)c1-c1ccc2c(NC(=O)C3CC3)noc2c1
- inhibition [4]: -0.7%
- inhibition [5]: 9%
- inhibition [6]: 2.3%
- inhibition [7]: 2%
- inhibition [8]: 0.3%
- inhibition [9]: -7.3%
- inhibition [10]: 6.7%

Compound: Cc1n[nH]c(C)c1-c1ccc2c(NC(=O)c3ccc(N4CCN(C)CC4)cc3)n[nH]c2c1
- inhibition [11]: 3.3%
- inhibition [12]: 93.7%
- inhibition [13]: -6%
- inhibition [14]: 1.3%
- inhibition [15]: 0.3%
- inhibition [16]: 50.7%
- inhibition [17]: 1.7%
- inhibition [18]: 0.3%
- inhibition [19]: 30.3%
- inhibition [20]: 0.7%

Reference: ChEMBL document CHEMBL4052759, “Discovery of DS79182026: A potent orally active hepcidin production inhibitor” (Bioorg Med Chem Lett, 2017)
